According to patent US20220370416A1, “COMPOUNDS AND METHODS FOR TARGETED DEGRADATION OF KRAS” (Arvinas Operations, Inc., priority 2020, published 2022):

What was measured:
HiBit-KRAS^G12C [1] = biological target: T1, HiBit-KRAS^G12C (Homo sapiens, UniProt P01116, G12C); assay: HiBit degradation assay in MiaPaCa-2 HiBit-KRas^G12C cells; format: cell-based; settings: 0.5% DMSO, 24 hours; for DC50: read-out: KRas^G12C-HiBiT (MiaPaCa; 0.5% DMSO) IC50; for Dmax: MIA PaCa-2, MiaPaCa-2 HiBit-KRas^G12C cells, read-out: KRas^G12C-HiBiT (MiaPaCa; 0.5% DMSO) DMax
T1 sequence (P01116 1-186 isoform P01116-2 G12C limits assumed): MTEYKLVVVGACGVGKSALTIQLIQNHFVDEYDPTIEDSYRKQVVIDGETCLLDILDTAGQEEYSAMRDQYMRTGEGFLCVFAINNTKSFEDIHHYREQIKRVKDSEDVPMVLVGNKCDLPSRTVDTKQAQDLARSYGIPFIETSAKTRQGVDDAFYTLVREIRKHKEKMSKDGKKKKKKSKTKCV
Method in brief: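 MiaPaCa-2 cells with CRISPR N-terminal HiBit knock-in on one endogenous KRAS^G12C allele, treated 24 hours at 37° C with compound titrated 10 μM to 20 nM (0.1% or 0.5% DMSO). Lytic HiBit luminescence normalized to DMSO, 4-parameter fit giving DC50 and Dmax; points cytotoxic to […] cells by alamar blue excluded.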

HiBit-KRAS^G12C [2] = biological target: T1, HiBit-KRAS^G12C; assay: HiBit degradation assay in SW1573 HiBit-KRas^G12C cells; format: cell-based; set-up: expressed in transfected cells; host or cells: SW1573 (clone E6), modified pcDNA3.1 vector, TK promoter; settings: 0.5% DMSO, 24 hours; for DC50: read-out: KRas^G12C-HiBiT (SW1573; 0.5% DMSO) IC50***; for Dmax: SW1573, SW1573 HiBit-KRas^G12C, read-out: KRas^G12C-HiBiT (SW1573; 0.5% DMSO) Dmax**
Method in brief: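 SW1573 cells stably expressing N-terminally HiBit-tagged KRAS G12C, under the TK promoter, were treated 24 h at 37 °C with 10 μM to 20 nM compound in 0.1% or 0.5% DMSO. Residual HiBit luminescence normalised to DMSO and fitted with a 4-parameter model for DC50 and Dmax. Points with ≥50% viability loss (alamar blue) excluded.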

[3] = MiaPaCa-2 HiBit-KRas^G12C cells

DC50 (HiBit-KRAS^G12C [1]; [3]) | DC50 (HiBit-KRAS^G12C [2]; SW1573 HiBit-KRas^G12C) | Dmax (HiBit-KRAS^G12C [1]; maximum degradation) | Dmax (HiBit-KRAS^G12C [2]) | KRas^G12C-HiBiT (MiaPaCa; 0.5% DMSO) DMax (HiBit-KRAS^G12C [1]; MiaPaCa-2 HiBit-KRas^G12C cells, maximum degradation) | KRas^G12C-HiBiT (SW1573; 0.5% DMSO) Dmax** (HiBit-KRAS^G12C [2]; SW1573 HiBit-KRas^G12C) | SMILES
> 1000 nM | > 1000 nM |  |  |  |  | C=CC(=O)N1CCN(c2nc(OCCN3CCC(C)(COc4cc([C@@H](C(=O)N5C[C@H](O)C[C@H]5C(=O)N[C@@H](C)c5ccc(-c6scnc6C)cc5)C(C)C)on4)CC3)nc3c(F)c(-c4cc(O)cc5ccccc45)c(Cl)cc23)C[C@@H]1CC#N [Compound 132, (2S,4R)-1-[(2S)-2-[3-({1-[2-({6-chloro-4-[(3S)-3-(cyanomethyl)-4-(prop-2-enoyl)piperazin-1-yl]-8-fluoro-7-(3-hydroxynaphthalen-1-yl)quinazolin-2-yl}oxy)ethyl]-4-methylpiperidin-4-yl}methoxy)-1,2-oxazol-5-yl]-3-methylbutanoyl]-4-hydroxy-N-[(1S)-1-[4-(4-methyl-1,3-thiazol-5-yl)phenyl]ethyl]pyrrolidine-2-carboxamide]
100 to 1000 nM | < 100 nM | > 70% | > 70% |  |  | C=CC(=O)N1CCN(c2nc(OCCN3CCC(F)(COc4cc([C@H](C(=O)N5C[C@H](O)C[C@H]5C(=O)N[C@@H](C)c5ccc(-c6scnc6C)cc5)C(C)C)on4)CC3)nc3c(F)c(-c4cc(O)cc5ccccc45)c(Cl)cc23)C[C@@H]1CC#N [Compound 133, (2S,4R)-1-[(2R)-2-[3-({1-[2-({6-chloro-4-[(3S)-3-(cyanomethyl)-4-(prop-2-enoyl)piperazin-1-yl]-8-fluoro-7-(3-hydroxynaphthalen-1-yl)quinazolin-2-yl}oxy)ethyl]-4-fluoropiperidin-4-yl}methoxy)-1,2-oxazol-5-yl]-3-methylbutanoyl]-4-hydroxy-N-[(1S)-1-[4-(4-methyl-1,3-thiazol-5-yl)phenyl]ethyl]pyrrolidine-2-carboxamide]
> 1000 nM | > 1000 nM |  |  |  |  | C=CC(=O)N1CCN(c2nc(OCCN3CCC(F)(COc4cc([C@@H](C(=O)N5C[C@H](O)C[C@H]5C(=O)N[C@@H](C)c5ccc(-c6scnc6C)cc5)C(C)C)on4)CC3)nc3c(F)c(-c4cc(O)cc5ccccc45)c(Cl)cc23)C[C@@H]1CC#N [Compound 134, (2S,4R)-1-[(2S)-2-[3-({1-[2-({6-chloro-4-[(3S)-3-(cyanomethyl)-4-(prop-2-enoyl)piperazin-1-yl]-8-fluoro-7-(3-hydroxynaphthalen-1-yl)quinazolin-2-yl}oxy)ethyl]-4-fluoropiperidin-4-yl}methoxy)-1,2-oxazol-5-yl]-3-methylbutanoyl]-4-hydroxy-N-[(1S)-1-[4-(4-methyl-1,3-thiazol-5-yl)phenyl]ethyl]pyrrolidine-2-carboxamide]
100 to 1000 nM | 100 to 1000 nM | 35 to 70% | 35 to 70% |  |  | C=CC(=O)N1CCN(c2nc(OCCN3CCC(COCC(=O)N[C@H](C(=O)N4C[C@H](O)C[C@H]4C(=O)N[C@@H](C)c4ccc(-c5scnc5C)cc4)C(C)(C)C)CC3)nc3c(F)c(-c4cccc5cccc(C)c45)c(Cl)cc23)C[C@@H]1CC#N [Compound 135, (2S,4R)-1-[(2S)-2-[2-({1-[2-({6-chloro-4-[(3S)-3-(cyanomethyl)-4-(prop-2-enoyl)piperazin-1-yl]-8-fluoro-7-(8-methylnaphthalen-1-yl)quinazolin-2-yl}oxy)ethyl]-piperidin-4-yl}methoxy)acetamido]-3,3-dimethylbutanoyl]-4-hydroxy-N-[(1S)-1-[4-(4-methyl-1,3-thiazol-5-yl)phenyl]ethyl]pyrrolidine-2-carboxamide]
> 1000 nM | 100 to 1000 nM |  | < 35% |  |  | C=CC(=O)N1CCN(c2nc(OCCN3CCC4(CC3)CN(c3cc([C@@H](C(=O)N5C[C@H](O)C[C@H]5C(=O)N[C@@H](C)c5ccc(-c6scnc6C)cc5)C(C)C)on3)C4)nc3c(F)c(-c4cc(O)cc5ccccc45)c(Cl)cc23)C[C@@H]1CC#N [Compound 137, (2S,4R)-1-[(2S)-2-(3-{7-[2-({6-chloro-4-[(3S)-3-(cyanomethyl)-4-(prop-2-enoyl)piperazin-1-yl]-8-fluoro-7-(3-hydroxynaphthalen-1-yl)quinazolin-2-yl}oxy)ethyl]-2,7-diazaspiro[3.5]nonan-2-yl}-1,2-oxazol-5-yl)-3-methylbutanoyl]-4-hydroxy-N-[(1S)-1-[4-(4-methyl-1,3-thiazol-5-yl)phenyl]ethyl]pyrrolidine-2-carboxamide]
100 to 1000 nM | < 100 nM |  |  | A (A ≥ 70) | A (A ≥ 70) | C=CC(=O)N1CCN(c2nc(OCCN3CCC4(CC3)CN(c3cc([C@H](C(=O)N5C[C@H](O)C[C@H]5C(=O)N[C@@H](C)c5ccc(-c6scnc6C)cc5)C(C)C)on3)C4)nc3c(F)c(-c4cc(O)cc5ccccc45)c(Cl)cc23)C[C@@H]1CC#N [Compound 139, (2S,4R)-1-[(2R)-2-(3-{7-[2-({6-chloro-4-[(3S)-3-(cyanomethyl)-4-(prop-2-enoyl)piperazin-1-yl]-8-fluoro-7-(3-hydroxynaphthalen-1-yl)quinazolin-2-yl}oxy)ethyl]-2,7-diazaspiro[3.5]nonan-2-yl}-1,2-oxazol-5-yl)-3-methylbutanoyl]-4-hydroxy-N-[(1S)-1-[4-(4-methyl-1,3-thiazol-5-yl)phenyl]ethyl]pyrrolidine-2-carboxamide]
> 1000 nM | 100 to 1000 nM | 35 to 70% | 35 to 70% |  |  | C=CC(=O)N1CCN(c2nc(OCCN3CC[C@@H](COCC(=O)N[C@H](C(=O)N4C[C@H](O)C[C@H]4C(=O)N[C@@H](C)c4ccc(-c5scnc5C)cc4)C(C)(C)C)C3)nc3c(F)c(-c4cc(O)cc5ccccc45)c(Cl)cc23)C[C@@H]1CC#N [Compound 140, (2S,4R)-1-[(2S)-2-(2-{[(3R)-1-[2-({6-chloro-4-[(3S)-3-(cyanomethyl)-4-(prop-2-enoyl)piperazin-1-yl]-8-fluoro-7-(3-hydroxynaphthalen-1-yl)quinazolin-2-yl}oxy)ethyl]pyrrolidin-3-yl]methoxy}acetamido)-3,3-dimethylbutanoyl]-4-hydroxy-N-[(1S)-1-[4-(4-methyl-1,3-thiazol-5-yl)phenyl]ethyl]pyrrolidine-2-carboxamide]
> 1000 nM | 100 to 1000 nM | 35 to 70% | 35 to 70% |  |  | C=CC(=O)N1CCN(c2nc(OCCN3CC[C@H](COCC(=O)N[C@H](C(=O)N4C[C@H](O)C[C@H]4C(=O)N[C@@H](C)c4ccc(-c5scnc5C)cc4)C(C)(C)C)C3)nc3c(F)c(-c4cc(O)cc5ccccc45)c(Cl)cc23)C[C@@H]1CC#N [Compound 142, (2S,4R)-1-[(2S)-2-(2-{[(3S)-1-[2-({6-chloro-4-[(3S)-3-(cyanomethyl)-4-(prop-2-enoyl)piperazin-1-yl]-8-fluoro-7-(3-hydroxynaphthalen-1-yl)quinazolin-2-yl}oxy)ethyl]pyrrolidin-3-yl]methoxy}acetamido)-3,3-dimethylbutanoyl]-4-hydroxy-N-[(1S)-1-[4-(4-methyl-1,3-thiazol-5-yl)phenyl]ethyl]pyrrolidine-2-carboxamide]
100 to 1000 nM | 100 to 1000 nM | > 70% | > 70% |  |  | C=CC(=O)N1CCN(c2nc(OCCN3CCC(CN(C)c4cc([C@H](C(=O)N5C[C@H](O)C[C@H]5C(=O)N[C@@H](C)c5ccc(-c6scnc6C)cc5)C(C)C)on4)CC3)nc3c(F)c(-c4cc(O)cc5ccccc45)c(Cl)cc23)C[C@@H]1CC#N [Compound 143, (2S,4R)-1-[(2R)-2-{3-[({1-[2-({6-chloro-4-[(3S)-3-(cyanomethyl)-4-(prop-2-enoyl)piperazin-1-yl]-8-fluoro-7-(3-hydroxynaphthalen-1-yl)quinazolin-2-yl}oxy)ethyl]piperidin-4-yl}methyl)(methyl)amino]-1,2-oxazol-5-yl}-3-methylbutanoyl]-4-hydroxy-N-[(1S)-1-[4-(4-methyl-1,3-thiazol-5-yl)phenyl]ethyl]pyrrolidine-2-carboxamide]
> 1000 nM | 100 to 1000 nM |  | < 35% |  |  | C=CC(=O)N1CCN(c2nc(OCCN3CCC(CN(C)c4cc([C@@H](C(=O)N5C[C@H](O)C[C@H]5C(=O)N[C@@H](C)c5ccc(-c6scnc6C)cc5)C(C)C)on4)CC3)nc3c(F)c(-c4cc(O)cc5ccccc45)c(Cl)cc23)C[C@@H]1CC#N [Compound 144, (2S,4R)-1-[(2S)-2-{3-[({1-[2-({6-chloro-4-[(3S)-3-(cyanomethyl)-4-(prop-2-enoyl)piperazin-1-yl]-8-fluoro-7-(3-hydroxynaphthalen-1-yl)quinazolin-2-yl}oxy)ethyl]piperidin-4-yl}methyl)(methyl)amino]-1,2-oxazol-5-yl}-3-methylbutanoyl]-4-hydroxy-N-[(1S)-1-[4-(4-methyl-1,3-thiazol-5-yl)phenyl]ethyl]pyrrolidine-2-carboxamide]
